Laboratory results published in patent publication US5476952A, “Antitumor cyclopentnaphthoquinone and cyclopentanthraquinone derivatives” (Sloan-Kettering Institute for Cancer Research, priority 1993, dated 1995).
Where two headings read alike, the source gives them in different places.

Legend:
[1] = test system: L1210; experiment: in vitro cell growth inhibition, L1210; format: cell-based
Excerpt: (§1) Compounds of the invention show antitumor activity. The antitumor activity of the representative cyclopentanthraquinone derivatives is compared with Mitomycin C, m-AMSA and adriamycin.

[2] = test system: human leukemic HL-60; experiment: in vitro cell growth inhibition, HL-60; format: cell-based; details: for IC50 / antitumor activity against human leukemic HL-60 cell growth (in words): HL-60, in vitro
Excerpt: as §1

[3] = test system: DNA; details: literature; cited from earlier work
[4] = literature; cited from earlier work
[5] = test system: certain tumor cell growth; details: literature; without alkylating side chain; cited from earlier work
[6] = test system: MT4; experiment: in vitro cell growth inhibition, MT4; format: cell-based, human; details: for IC50 / antitumor activity against MT4 cell growth (in words): MT4, in vitro
Excerpt: as §1

[7] = test system: L1210 cells; experiment: effect against L1210 in mice (mice inoculated i.p. with L1210 cells); format: in vivo; design: AST / survival time: unit not given here; details: for % ILS (increase in lifespan): 25% or greater considered significant; for survival time: individual mice
Excerpt: *Increase in lifespan of 25% or greater is considered to be significant.
Mice dying of toxicity (t) not included in AST evaluation.

[8] = Mus musculus, L1210, in vitro, read-out: IC50 for Cell Growth Inhibition, L1210
[9] = L1210, in vitro, read-out: IC50 for Cell Growth Inhibition, L1210

| Structure (SMILES) | antitumor activity against L1210 cell growth (in words) ([1]; L1210, in vitro) | IC50 [1, 8] [nM] | AST ([7]; 2.5 mg/kg QD x5, i.p.) | N/T ([7]; 2.5 mg/kg QD x5, i.p.) | % ILS (increase in lifespan) ([7]; 2.5 mg/kg QD x5, i.p.) [%] | day 4 AWC ([7]; 2.5 mg/kg QD x5, i.p.) | N/T ([7]; 5.0 mg/kg QD x5, i.p.) | day 4 AWC ([7]; 5.0 mg/kg QD x5, i.p.) [g] | AST ([7]; 20 mg/kg x1, i.p.) | N/T ([7]; 20 mg/kg x1, i.p.) | % ILS (increase in lifespan) ([7]; 20 mg/kg x1, i.p.) [%] | survival time ([7]; 20 mg/kg x1, i.p.) | other results |
| --- | --- | --- | --- | --- | --- | --- | --- | --- | --- | --- | --- | --- | --- |
| O=C1c2ccccc2C(=O)c2c1ccc1c2CC2NC12 (stereo not drawn) [compound IIa, 2,3-aziridino-2,3-dihydro-1H-cyclopent[a]anthracene-6,11-dione] | less activity | – | – | – | – | – | – | – | – | – | – | – | IC50 ([1]; Mus musculus, L1210, read-out: IC50 for Cell Growth Inhibition, L1210): 9090 nM |
| COc1cccc2c1C(=O)c1c(O)c3c(c(O)c1C2=O)C[C@@](O)(C(=O)CO)C[C@@H]3O[C@H]1C[C@H](N)[C@H](O)[C@H](C)O1 [Adriamycin, reference compound] | – | 20 | – | – | – | – | – | – | – | – | – | – | IC50 ([2]; Homo sapiens): 30 nM |
| CCN(CC)CCNc1ccc(C)c2sc3ccccc3c(=O)c12 [lucanthone] | – | – | – | – | – | – | – | – | – | – | – | – | interaction with DNA (in words) [3]: capable of intercalating into DNA and monoalkylating the DNA; antischistosomal and antitumor activity (in words) [4]: potent antischistosomal and antitumor activity |
| Cc1cc(O)c2c(c1)C(=O)c1cccc(O)c1C2=O [chrysophanol] | – | – | – | – | – | – | – | – | – | – | – | – | activity of the parent natural product (in words) [5]: inactive |
| COc1cc(NS(C)(=O)=O)ccc1Nc1c2ccccc2nc2ccccc12 [m-AMSA, reference compound] | – | 4 | – | – | – | – | – | – | – | – | – | – | IC50 ([2]; Homo sapiens): 80 nM; IC50 ([6]; Homo sapiens): 34 nM |
| Cc1cc(O)c2c(c1)C(=O)c1cc(O)cc(O)c1C2=O [emodin] | – | – | – | – | – | – | – | – | – | – | – | – | activity of the parent natural product (in words) [5]: inactive |
| CO[C@@]12[C@H](COC(N)=O)C3=C(C(=O)C(C)=C(N)C3=O)N1C[C@@H]1N[C@@H]12 [Mit-C, reference compound] | – | 5 | 12.7 | 0/3 | 92 | +1.0 g | 0/3 | -2.0 | 11.0 | 0/1 | 67 | 11 | interaction with DNA (in words) [3]: bind covalently at the minor groove of DNA double strand forming interstrand cross-links; day 7 AWC ([7]; 2.5 mg/kg QD x5, i.p.): -0.3 g |
| O=C1c2ccccc2C(=O)c2c1cc(OCCN(CCCl)CCCl)c1c2CC2NC12 (stereo not drawn) [compound IIc, 2,3-aziridino-4-[2-bis(2-chloroethyl)amino]-ethoxy-2,3-dihydro-1H-cyclopent [a]anthracene-6,11-dione] | much greater antitumor activity than that of IIa and IIb | – | 9.0 | 0/3 | 36 | +0.3 g | 0/3 | -0.3 | 9.0 | 0/1 | 36 | 9 | IC50 [2]: 75 nM; antitumor activity against human leukemic HL-60 cell growth (in words) [2]: significant antitumor activity; potency relative to m-AMSA against HL-60 cell growth ([2]; compared with m-AMSA, HL-60): as potent as m-AMSA; IC50 [6]: 69 nM; antitumor activity against MT4 cell growth (in words) [6]: significant antitumor activity; activity relative to m-AMSA against MT4 cell growth ([6]; compared with m-AMSA, MT4): half as active as m-AMSA; AST ([7]; 5.0 mg/kg QD x5, i.p.): 9.0; % ILS (increase in lifespan) ([7]; 5.0 mg/kg QD x5, i.p.): 36%; day 7 AWC ([7]; 5.0 mg/kg QD x5, i.p.): +1.7 g; day 4 AWC ([7]; 20 mg/kg x1, i.p.): -2.5 g; day 7 AWC ([7]; 20 mg/kg x1, i.p.): +1.5 g; IC50 [1, 9]: 64 nM |
| O=C1c2ccccc2C(=O)c2c1cc(OCCN(CCCl)CCCl)c1c2CCC1 [compound IIb, 4-[2-bis(2-chloroethyl)amino]ethoxy-2,3-dihydro-1H-cyclopent[a]anthracene-6,11-dione] | significant antitumor activity | – | 9.0 | 0/3 | 36 | +0.3 g | 0/3 | -0.3 | 9.0 | 0/1 | 36 | 9 | IC50 [2]: 180 nM; antitumor activity against human leukemic HL-60 cell growth (in words) [2]: significant antitumor activity; IC50 [6]: 110 nM; antitumor activity against MT4 cell growth (in words) [6]: significant antitumor activity; day 7 AWC ([7]; 2.5 mg/kg QD x5, i.p.): +1.0 g; AST ([7]; 5.0 mg/kg QD x5, i.p.): 9.0; % ILS (increase in lifespan) ([7]; 5.0 mg/kg QD x5, i.p.): 36%; day 7 AWC ([7]; 5.0 mg/kg QD x5, i.p.): +0.7 g; day 4 AWC ([7]; 20 mg/kg x1, i.p.): -2.5 g; day 7 AWC ([7]; 20 mg/kg x1, i.p.): +0.5 g; IC50 [1, 9]: 290 nM |
